In PubChem BioAssay (NCI):
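Step 1: Grow cells in 96-well plates. Step 2: Expose to compound for 48 hours at 5 concentrations. Step 3: Interpolate endpoints linearly; if unreached, use highest concentration. Here, GI50 denotes the concentration required for 50% inhibition of growth. The concentration for full growth arrest is given as TGI.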

Legend:
Assay in all cases: NCI tumour cell line growth inhibition, 48 h
[1] = test system: HOP-92 NSCLC
[2] = test system: SNB-75 CNS
[3] = test system: A498 renal
[4] = test system: RPMI-8226 leukemia
[5] = test system: LOX IMVI melanoma
[6] = test system: U251 CNS
[7] = test system: IGROV1 ovarian
[8] = test system: HL-60(TB) leukemia
[9] = test system: UACC-62 melanoma
[10] = test system: 786-0 renal

SMILES | GI50 [1] | TGI [1] | GI50 [2] | TGI [2] | GI50 [3] | TGI [3] | GI50 [4] | TGI [4] | GI50 [5] | TGI [5] | GI50 [6] | TGI [6] | GI50 [7] | TGI [7] | GI50 [8] | TGI [8] | GI50 [9] | TGI [9] | GI50 [10] | TGI [10]
O=C(Nc1ccncc1)C(=O)c1cn(S(=O)(=O)c2ccc(Br)cc2)c2ccccc12 | 2.14 µM | 22.4 µM | 4 µM | 41.7 µM | 3.17 µM | > 100 µM | 4.56 µM | > 100 µM | 7.49 µM | > 100 µM | 6.41 µM | > 100 µM | 8.55 µM | > 100 µM | 2.41 µM | > 100 µM | 3.79 µM | > 100 µM | 46.3 µM | > 100 µM
Cc1ccc(S(=O)(=O)N/N=C/C(Br)=C(/Br)C(=O)O)cc1 | – | 39.6 µM | – | 41 µM | – | 32.3 µM | – | 6.18 µM | – | 11 µM | – | 18.8 µM | – | 34.7 µM | – | 5.12 µM | – | 22.3 µM | – | 14.8 µM
COC(=O)[C@]12CC[C@@H](C)[C@H](C)[C@@H]1C1=CC[C@@H]3[C@@]4(C)CC(=O)[C@H](O)[C@@]5(C)COC(=C45)C[C@@]3(C)[C@]1(C)CC2 | 14.3 µM | 29.1 µM | 16 µM | 33 µM | 18.5 µM | 33.2 µM | 21 µM | 45.7 µM | 17 µM | 31.1 µM | 17.9 µM | 31.9 µM | 19.3 µM | 37.6 µM | 19.5 µM | 40.9 µM | 15.7 µM | 31.6 µM | 17.8 µM | 34.2 µM
C1=CN2C[n+]3cccc(OCc4ccccc4)c3N=C2C(OCc2ccccc2)=C1 | – | 81.4 µM | – | > 100 µM | – | > 100 µM | – | 9.26 µM | – | 86 µM | – | > 100 µM | – | 27.7 µM | – | 0.849 µM | – | 26.6 µM | – | > 100 µM
O=S(=O)(c1ccc(NC(=S)N/N=C/c2ccccc2O)cc1)N1CCCCC1 | – | 66.1 µM | – | > 65.2 µM | – | 27.9 µM | – | 8.17 µM | – | 0.109 µM | – | 16.8 µM | – | > 50.4 µM | 0.351 µM | 7.12 µM | – | 0.262 µM | – | 4.34 µM
COc1ccc(-c2cc(-c3ccc(Nc4nc(Nc5ccc(Cl)cc5)nc(Nc5ccc(Cl)cc5)n4)cc3)nc(N)c2C#N)cc1 | 1.31 µM | 3.14 µM | 1.4 µM | 3.5 µM | 2.3 µM | 5.84 µM | 0.931 µM | > 21.9 µM | 1.4 µM | 2.73 µM | 2.29 µM | 6.58 µM | 2.25 µM | 5.88 µM | 0.866 µM | 4.59 µM | 2.64 µM | 10.6 µM | 2.24 µM | 5.68 µM
O=C(CCCc1c[nH]c2ccccc12)NC1CC(=O)c2c(Br)sc(Br)c21 (stereo not given) | 17.9 µM | 40 µM | 13.9 µM | 27.7 µM | 24.2 µM | 40.5 µM | 4.37 µM | > 100 µM | 1.9 µM | 3.75 µM | 7.29 µM | 19.9 µM | 9.05 µM | 40.5 µM | 5.04 µM | 67.1 µM | 14.2 µM | 27.9 µM | 19.2 µM | 34.9 µM
CC(Cl)(/C=C/Cl)C(Cl)/C=C/C(Cl)(CCl)CBr (stereo not given) | – | 4.01 µM | – | 14.5 µM | – | 18.4 µM | – | 7.31 µM | – | 4.5 µM | – | 8.37 µM | – | 25.1 µM | – | 5.32 µM | – | 5.2 µM | – | 10.8 µM
CCCCCCCCCCCCCCCCCCNC(=O)[C@H]1CSC(c2ccc(OC)c(F)c2)N1 (stereo not given in full) | 7.48 µM | 28.9 µM | 3.1 µM | 14.1 µM | – | > 38.3 µM | 0.435 µM | 1.91 µM | 2.68 µM | 15.8 µM | 4.48 µM | 22.9 µM | 6.65 µM | 29.1 µM | 1.96 µM | 4.65 µM | 1.72 µM | 3.82 µM | 7.18 µM | > 46.2 µM
C[C@H]1[C@H](OC(=O)CCC(=O)O)O[C@@H]2O[C@]3(C)CC[C@H]4[C@H](C)CC[C@@H]1[C@@]24OO3 | 0.214 µM | 2.38 µM | 2.34 µM | 17.6 µM | 5.93 µM | 33.8 µM | 0.0948 µM | 13 µM | 0.421 µM | 4.79 µM | 0.503 µM | 18.5 µM | 1.17 µM | 5.91 µM | 0.167 µM | 0.566 µM | 0.474 µM | 27.4 µM | 1.12 µM | 25.8 µM
Cc1cc2c(C)c3cc(C)c(N)cc3nc2cc1N | 1.54 µM | 5.13 µM | 1.14 µM | 4.94 µM | 0.363 µM | 2.01 µM | 1.33 µM | 5.92 µM | 0.893 µM | 4.03 µM | 0.648 µM | 5.72 µM | 1.06 µM | 10.8 µM | 3 µM | 10.1 µM | 0.998 µM | 3.58 µM | 0.929 µM | 8.84 µM
N#C/C(=C\c1c(-c2ccccc2)[nH]c2ccccc12)C(=O)c1ccc(Cl)cc1 | 3.35 µM | 22.1 µM | 1.43 µM | 8.7 µM | 2.82 µM | 14.7 µM | 1.32 µM | 20 µM | 4.76 µM | > 100 µM | 1.11 µM | 16.2 µM | 4.65 µM | 41.5 µM | 0.385 µM | 3.17 µM | 1.46 µM | 33.9 µM | 5.53 µM | 23.5 µM
COc1ccc(/C=C2/CCCC/C2=N/O)cc1 | – | > 100 µM | – | > 100 µM | – | > 100 µM | – | > 100 µM | – | > 100 µM | – | > 100 µM | – | > 100 µM | – | > 100 µM | – | > 100 µM | – | > 100 µM
Nc1cccc2c1C(=O)N(C1CCC(=O)NC1=O)C2=O (stereo not given) | > 100 µM | > 100 µM | > 100 µM | > 100 µM | > 100 µM | > 100 µM | > 100 µM | > 100 µM | > 100 µM | > 100 µM | > 100 µM | > 100 µM | > 100 µM | > 100 µM | > 100 µM | > 100 µM | > 100 µM | > 100 µM | > 100 µM | > 100 µM
